These results are taken from US9073928B2, “Tosylate salt of cyclopropanecarboxylic acid 4-(6-chloro-3-methyl-4, 10-dihydro-3H-2,3,4,9-tetrabenzo[f]azulene-9-carbonyl)-2-fluorobenzylamide” (Vantia Limited, priority 2010, dated 2015).

Series [1] can be described thus: physchem. Conditions: 37 °C, water, thermodynamic from solid.
Experimental: (§1) A spectrophotometric method was used. Standards were prepared in methanol (including a methanol blank) and the absorbance measured at 260 and 270 nm, from which a calibration line was generated for each wavelength. The test compound was incubated with agitation in water at 37° C. for 24 h before removal of non-soluble material by centrifugation. The supernatant was analysed against the calibration lines (after subtraction of the water blank response) and the mean of the determinations at the two wavelengths was reported.
Series [2] deals with V1a vasopressin receptor (Homo sapiens, UniProt P37288). The conditions noted are these: dysmenorrhoea patients, oral; cited from earlier work.
A short description of series [3]: Thermodynamic solubility in water (spectrophotometric method).
Experimental: as §1
In series [4] the target is T1, cloned human V1a receptor (Homo sapiens, UniProt P37288).
T1 construct: expressed in transfected cells
The experiment in a line: In vitro functional calcium mobilisation assay (FLIPR), antagonist activity. Type of series: cell-based. Conditions: read-out: mean fpKi (Human V1a) (converted). From the text:
The ability of the tosylate salt of the invention to inhibit the vasopressin V1a receptor may be determined using the in vitro functional calcium mobilisation assay (FLIPR) described in PCT/DK2005/000540. This assay measures antagonist activity at a cloned human V1a receptor.
In general terms: Calcium flux is commonly read through the fluorescence of an indicator in the cells.

Series [5] can be described thus: Oral availability: plasma exposure in rats after oral dosing of suspensions. The conditions noted are these: rat, suspension in 0.5% HPMC, 10 mg/kg p.o. It counts as in vivo.
Text: The plasma exposure in rats following dosing with the cyclopropanecarboxylic acid 4-(6-chloro-3-methyl-4,10-dihydro-3H-2,3,4,9-tetraazabenzo[f]azulene-9-carbonyl)-2-fluoro-benzylamide para-toluenesulphonate (“Tosylate”) has been examined in comparison with the corresponding free base, cyclopropanecarboxylic acid 4-(6-chloro-3-methyl-4,10-dihydro-3H-2,3,4,9-tetraazabenzo[f]azulene-9-carbonyl)-2-fluoro-benzylamide (“Free Base”).

Values after ≈ are worked out from the molar mass of the structure shown.

V1a vasopressin receptor, sequence (P37288 whole entry): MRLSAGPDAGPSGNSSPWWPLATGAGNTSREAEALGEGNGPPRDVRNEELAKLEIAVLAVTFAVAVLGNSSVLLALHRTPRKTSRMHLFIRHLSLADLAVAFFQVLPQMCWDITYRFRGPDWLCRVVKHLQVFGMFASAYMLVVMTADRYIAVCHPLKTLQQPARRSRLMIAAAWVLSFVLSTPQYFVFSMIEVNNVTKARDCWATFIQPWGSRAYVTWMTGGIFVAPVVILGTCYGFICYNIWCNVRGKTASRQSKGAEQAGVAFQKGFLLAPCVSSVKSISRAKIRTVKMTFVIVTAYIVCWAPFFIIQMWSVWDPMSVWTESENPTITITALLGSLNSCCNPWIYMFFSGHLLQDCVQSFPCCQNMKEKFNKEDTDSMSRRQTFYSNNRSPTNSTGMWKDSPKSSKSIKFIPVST
T1 sequence (P37288 whole entry): as above

For orientation: solubility means the dissolved amount per volume that the medium holds. Low readings indicate a poorly soluble substance, high ones a readily soluble substance. `Cn1ncc2c1Nc1cc(Cl)ccc1N(C(=O)c1ccc(CNC(=O)C3CC3)c(F)c1)C2` [Free base, cyclopropanecarboxylic acid 4-(6-chloro-3-methyl-4,10-dihydro-3H-2,3,4,9-tetraazabenzo[f]azulene-9-carbonyl)-2-fluoro-benzylamide, reference compound] displayed a solubility at 24 h in series [1] of 5 µg/mL (≈ 11 µM).
With `COc1ccc(S(=O)(=O)N2c3ccc(Cl)cc3[C@](O)(c3ccccc3Cl)[C@@H]2C(=O)N2CCC[C@H]2C(N)=O)cc1OC` [SR49059], the “Pain and additional pain-killer use compared to placebo” value in series [2] was “dose-related decrease in the amount of additional pain-killer taken”.
As usually defined, the AUC(0-t) is the area under the concentration-time curve up to a stated or last time point. Broadly, the Cmax is the peak of the concentration-time curve. On to `Cc1ccc(S(=O)(=O)O)cc1.Cn1ncc2c1Nc1cc(Cl)ccc1N(C(=O)c1ccc(CNC(=O)C3CC3)c(F)c1)C2` [Tosylate, cyclopropanecarboxylic acid 4-(6-chloro-3-methyl-4,10-dihydro-3H-2,3,4,9-tetraazabenzo[f]azulene-9-carbonyl)-2-fluoro-benzylamide para-toluenesulphonate], for which the “Solubility in water relative to known free base” value in series [3] turned out to be 8 ×. Moreover, the solubility at 24 h in series [3] (37 °C, thermodynamic from solid) worked out at 40 µg/mL. The Ki in series [4] was 3.16 nM. For the same molecule, in series [5] (in vivo, po), the exposure AUC(0-t) was 670 ng·h/mL and the maximum concentration (Cmax) was 209 ng/mL. Besides, in series [5], the “Plasma exposure / absorption after oral dosing (in words)” value is on record as “significant improvements in plasma exposure”.
